Results published in patent publication US20040039014A1, “Methods and compounds for treating depression and other disorders” (NPS Pharmaceuticals, Inc., priority 1998, published 2004).
Where a name gives a salt, the structure may show the parent alone. Marks after values point to notes of the source that are not given here.

Assays:
NMDA receptor = test system: T1, NMDA receptor; experiment: NMDA receptor assay (fura-2 cytosolic calcium in cultured rat cerebellar granule cells); assay type: cell-based; details: Table I, read-out: fura2 data IC50
T1 construct: fura2 data IC50; rat cerebellar granule cells
Method: All culture media, antibiotics, and enzymes, with the exception of fetal calf serum (Hyclone Laboratories, Logan, Utah), were purchased from Sigma Chemical Co., St. Louis, Mo. Fura-2/AM was obtained from Molecular Probes, Eugene, Oreg., and was prepared freshly in dimethylsulfoxide (DMSO) before use. Ionomycin (Calbiochem) was stored as a stock solution in DMSO. Nifedipine (Sigma) and nimodipine (RBI) were dissolved in absolute ethanol. […] All other agents were dissolved in phosphate-buffered saline (PBS), and adjusted to pH 7.4
Preparation of Rat Cerebellar Granule Cell (RCGC) Cultures
Briefly, primary cultures of cerebellar granule neurons were obtained from 8-day-old rats and plated onto squares of Aclar plastic coated with poly-L-lysine. The plastic squares were placed in 12-well culture plates, and ˜7.5×10^5 cells were added to each well. Cultures were maintained in Eagles's medium containing 25 mM KCl, 10% fetal calf serum, 2 mM glutamine, 100 μg/ml gentamicin, 50 U/ml penicillin, and 50 μg/ml streptomycin at 37° C. in a humid atmosphere of 5%CO2 in air for 24 hr before the addition of cytosine arabinoside (10 μM, final). No changes of culture medium were made until the cells were used for fluorescence recording 6-8 days after plating.
Measurement of Cytosolic Calcium
(“Ca^2+-free” buffer contained no added CaCl2 and 30 μM EGTA). The cells were then rinsed with the same buffer, lacking fura-2/AM, and maintained at room temperature until used for measurement of fluorescence, the Aclar squares were transferred into quartz cuvettes containing 2 ml of the HEPES buffer. The cuvette was then placed into a thermostatted holder equipped with a magnetic stirrer in a custom-built spectrofluorimeter (Biomedical Instrumentation Group, University of Pennsylvania, Philadelphia, Pa.). The size of the plastic Aclar square was such as to fit snugly in the cuvette when placed at a diagonal and therefore suspend itself over the spin bar. Fluorescence was measured using excitation and emission wavelengths of 340 and 510 nm, respectively. The amplitude of the evoked increase in fluorescence and subsequent inhibition were recorded and the concentration of [Ca^2+]i was calculated using the formula:
[Ca^2+]=Kd (F-Fmin)/(Fmax-F) (Eq. 1)
F=fluorescence amplitude evoked at a particular time point or concentration of compound;
Fmin=minimum fluorescence determined after the addition of a 2.5 M TRIS/0.3 M EGTA solution;
Fmax=maximum fluorescence determined following the addition of 7 mM ionomycin in DMSO; and […]

male C57BL/6 mice = experiment: Mouse tail-suspension test (TST) with Compound 60; assay type: in vivo; details: for Mean duration of immobility: Table VII, 5 mg/kg p.o. single dose, saline control 154.9
Method: For the mouse tail-suspension test with Compound 60, male pathogen-free C57BL/6 mice (Harlan Sprague-Dawley) weighing between 22-25 g were used. Animals were removed from the housing room to the testing area in their own cages and allowed to adapt to the new environment for at least 1 hour before testing. Mice were administered either drug (imipramine, 15 mg/kg i.p.; or Compound 60, various p.o. doses) or saline. Thirty minutes to 24 hours later, the mice were suspended on the edge of a shelf 80 cm above the floor in the testing room by adhesive tape placed approximately 1 cm from the tip of the tail. The duration of immobility was recorded during a test period of 5 minutes. Mice were considered immobile only when they hung passively and completely motionless. Results were expressed as the duration of immobility (sec).

male NIH-Swiss mice = experiment: Mouse forced-swim test (FST); assay type: in vivo
Method: For the mouse and rat forced-swim tests, male pathogen-free NIH-Swiss mice (Harlan Sprague-Dawley) weighing between 22-25 g, and male pathogen-free Sprague-Dawley rats (Harlan Sprague-Dawley) weighing between 320-350 g were used. Animals were removed from the housing room to the testing area in their own cages and allowed to adapt to the new environment for at least 1 hour before testing. Mice were administered either drug (imipramine, 10 mg/kg i.p.; or Compound 60, various p.o or i.p. doses) or saline. Thirty minutes to 24 hours later, mice were placed individually in cylinders (diameter: 10 cm; height: 25 cm) filled with 6 cm of water (22-25° C.) for 6 minutes. The duration of immobility during the last 4 minutes of the 6 minute test was scored. A mouse was recorded as immobile when floating motionless or making only those movements necessary to keep its head above water. Results were expressed as the duration of immobility (seconds).

[1] = target: T2, norepinephrine transporter site (Rattus norvegicus, UniProt Q63380); experiment: Norepinephrine reuptake inhibition assay ([3H]nisoxetine binding, rat forebrain membranes); details: Table I; read-out: NE Uptake Ki
T2 construct: tissue NovaScreen (performed the assay); host or cells: rat forebrain membranes
Method: (§1) Monoamine Transporter Minding Assays
(§2) Monoamine transporter binding assays (reuptake inhibition assays) were performed by NovaScreen using standard radioligand binding assays. The transporter binding assays are described briefly below:
Norepinephrine Reuptake Inhibition Assay
Reactions were terminated by rapid vacuum filtration onto glass fiber filters.

Solubility = assay type: physicochemical; details: hydrochloride salt
[2] = target: T3, serotonin transporter site (Rattus norvegicus, UniProt P31652); experiment: Serotonin reuptake inhibition assay ([3H]citalopram binding, rat forebrain membranes); details: Table I; read-out: 5-HT Uptake Ki
T3 construct: tissue NovaScreen (performed the assay); host or cells: rat forebrain membranes
Method: as §1, §2
Serotonin Reuptake Inhibition Assay
Rat forebrain membranes were incubated with 0.7 nM [^3H] citalopram, N-methyl, (70-87 Ci/mmol)in 50 mM Tris-HCl (pH 7.4), 120 mM NaCl, and 5 mM KCl at 25° C. for 60 minutes. […] Reactions were terminated by rapid vacuum filtration onto glass fiber filters.

T3 sequence (P31652 whole entry): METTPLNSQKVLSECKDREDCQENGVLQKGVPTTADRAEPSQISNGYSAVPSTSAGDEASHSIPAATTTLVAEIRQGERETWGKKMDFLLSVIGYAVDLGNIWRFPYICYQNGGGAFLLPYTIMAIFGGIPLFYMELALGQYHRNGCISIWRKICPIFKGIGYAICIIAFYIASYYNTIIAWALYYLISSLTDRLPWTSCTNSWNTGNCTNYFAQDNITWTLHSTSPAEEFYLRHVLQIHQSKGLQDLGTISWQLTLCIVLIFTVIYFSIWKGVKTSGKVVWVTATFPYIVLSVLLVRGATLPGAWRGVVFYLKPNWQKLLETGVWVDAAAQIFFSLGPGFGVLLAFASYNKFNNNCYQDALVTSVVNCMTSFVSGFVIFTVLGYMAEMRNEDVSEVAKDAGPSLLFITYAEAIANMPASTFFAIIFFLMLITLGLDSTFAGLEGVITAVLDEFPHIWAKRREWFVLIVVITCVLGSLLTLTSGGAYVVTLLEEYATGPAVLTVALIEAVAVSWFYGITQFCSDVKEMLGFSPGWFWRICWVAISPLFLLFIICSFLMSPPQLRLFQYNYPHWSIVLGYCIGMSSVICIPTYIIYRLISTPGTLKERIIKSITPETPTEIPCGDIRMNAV
T2 sequence (Q63380 1-617): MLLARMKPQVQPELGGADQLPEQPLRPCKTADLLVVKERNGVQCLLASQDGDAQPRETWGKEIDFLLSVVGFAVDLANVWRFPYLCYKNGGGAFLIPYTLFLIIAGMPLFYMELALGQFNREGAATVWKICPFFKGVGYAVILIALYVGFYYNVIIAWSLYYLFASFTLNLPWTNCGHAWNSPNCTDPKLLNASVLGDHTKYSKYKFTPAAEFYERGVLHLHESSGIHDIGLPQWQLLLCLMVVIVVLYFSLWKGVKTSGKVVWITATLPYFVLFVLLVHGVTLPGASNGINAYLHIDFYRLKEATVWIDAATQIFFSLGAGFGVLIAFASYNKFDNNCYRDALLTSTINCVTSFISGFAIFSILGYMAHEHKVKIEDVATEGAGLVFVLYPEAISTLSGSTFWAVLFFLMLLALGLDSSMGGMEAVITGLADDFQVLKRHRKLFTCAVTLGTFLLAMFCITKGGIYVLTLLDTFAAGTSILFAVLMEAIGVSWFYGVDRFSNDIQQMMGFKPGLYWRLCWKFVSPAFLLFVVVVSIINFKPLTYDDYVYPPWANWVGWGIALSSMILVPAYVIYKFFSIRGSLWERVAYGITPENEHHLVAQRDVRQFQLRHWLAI

In the case of CNCCC(c1cccc(F)c1)c1cccc(F)c1 [Compound 60, N-Methyl-3.,3-bis(3-fluorophenyl)propylamine hydrochloride], the IC50 (NMDA receptor) is reported as 416 nM, the “Duration of Immobility” value (male C57BL/6 mice; Table IX (experiment #2), 0.625 mg/kg single oral dose 60 minutes prior to testing, saline control 149.1) is reported as 143.3 s and the “Duration of Immobility” value (male C57BL/6 mice; Table IX (experiment #2), 1.25 mg/kg single oral dose 60 minutes prior to testing, saline control 149.1) is reported as 125.8 s. The “Duration of Immobility” value (male C57BL/6 mice; Table IX (experiment #2), 2.5 mg/kg single oral dose 60 minutes prior to testing, saline control 149.1) was 69.6* sec, the “Duration of Immobility” value (male C57BL/6 mice; Table IX (experiment #2), 5 mg/kg single oral dose 60 minutes prior to testing, saline control 149.1) was 69.5* sec and the “Duration of Immobility” value (male C57BL/6 mice; Table IX (experiment #2), 10 mg/kg single oral dose 60 minutes prior to testing, saline control 149.1) was 15.6* sec. For the same molecule, the “Mean duration of immobility” value (male C57BL/6 mice; time post-dose 0.5) was 84.9* sec, the “Mean duration of immobility” value (male C57BL/6 mice; time post-dose 1) was 74.7* sec and the “Mean duration of immobility” value (male C57BL/6 mice; time post-dose 2) was 93.0* sec. For the same molecule, the “Mean duration of immobility” value (male C57BL/6 mice; time post-dose 4) was 109.7 s, the “Mean duration of immobility” value (male C57BL/6 mice; time post-dose 6) was 125.5 s and the “Mean duration of immobility” value (male C57BL/6 mice; time post-dose 24) was 177.7 s. For the same molecule, the “Duration of Immobility” value (male C57BL/6 mice; Table VIII (experiment #1), 2.5 mg/kg single oral dose 60 minutes prior to testing, saline control 210.1) was 130.7* sec, the “Duration of Immobility” value (male C57BL/6 mice; Table VIII (experiment #1), 5 mg/kg single oral dose 60 minutes prior to testing, saline control 210.1) was 123.5* sec and the “Duration of Immobility” value (male C57BL/6 mice; Table VIII (experiment #1), 10 mg/kg single oral dose 60 minutes prior to testing, saline control 210.1) was 47.8* sec. For the same molecule, the “time of peak effect (reduction in the duration of immobility) post-dosing” value (male C57BL/6 mice; mouse TST, single 5-mg/kg oral dose) was 60 min, the “Mean duration of immobility” value (male NIH-Swiss mice; Table III, 5 mg/kg p.o. single dose, time post-dose 0.5, saline control 128.2) was 96.1 s and the “Mean duration of immobility” value (male NIH-Swiss mice; Table III, 5 mg/kg p.o. single dose, time post-dose 1, saline control 128.2) was 38.8* sec. The “Mean duration of immobility” value (male NIH-Swiss mice; Table III, 5 mg/kg p.o. single dose, time post-dose 2, saline control 128.2) was 66.2* sec, the “Mean duration of immobility” value (male NIH-Swiss mice; Table III, 5 mg/kg p.o. single dose, time post-dose 4, saline control 128.2) was 66.9* sec and the “Mean duration of immobility” value (male NIH-Swiss mice; Table III, 5 mg/kg p.o. single dose, time post-dose 6, saline control 128.2) was 76.8* sec. For the same molecule, the “Mean duration of immobility” value (male NIH-Swiss mice; Table III, 5 mg/kg p.o. single dose, time post-dose 24, saline control 128.2) was 124.8 s, the “Mean duration of immobility” value (male NIH-Swiss mice; Table IV, 0.625 mg/kg single oral dose 60 minutes prior to testing, saline control 129.7) was 153.3 s and the “Mean duration of immobility” value (male NIH-Swiss mice; Table IV, 1.25 mg/kg single oral dose 60 minutes prior to testing, saline control 129.7) was 72.3* sec. For the same molecule, the “Mean duration of immobility” value (male NIH-Swiss mice; Table IV, 2.5 mg/kg single oral dose 60 minutes prior to testing, saline control 129.7) was 64.5* sec, the “Mean duration of immobility” value (male NIH-Swiss mice; Table IV, 5 mg/kg single oral dose 60 minutes prior to testing, saline control 129.7) was 56.6* sec and the “Mean duration of immobility” value (male NIH-Swiss mice; Table IV, 10 mg/kg single oral dose 60 minutes prior to testing, saline control 129.7) was 68.7* sec. For the same molecule, the “Mean duration of immobility” value (male NIH-Swiss mice; Table V, 0.625 mg/kg single i.p. dose 30 minutes prior to testing, saline control 137.8) was 139.5 s, the “Mean duration of immobility” value (male NIH-Swiss mice; Table V, 1.25 mg/kg single i.p. dose 30 minutes prior to testing, saline control 137.8) was 85.6* sec and the “Mean duration of immobility” value (male NIH-Swiss mice; Table V, 2.5 mg/kg single i.p. dose 30 minutes prior to testing, saline control 137.8) was 68.5* sec. The “Mean duration of immobility” value (male NIH-Swiss mice; Table V, 5 mg/kg single i.p. dose 30 minutes prior to testing, saline control 137.8) was 89.6* sec, the “Mean duration of immobility” value (male NIH-Swiss mice; Table V, 10 mg/kg single i.p. dose 30 minutes prior to testing, saline control 137.8) was 106.1 s and the “time of peak effect (reduction in the duration of immobility) post-dosing” value (male NIH-Swiss mice; mouse FST, single dose 5 mg/kg p.o.) was 60 min. For the same molecule, the Ki [1] was over 10000 nM, the solubility (Solubility; ethanol, organic solvent or mixture, EtOH) was 1000 mg/mL and the solubility (Solubility; water, H2O) was 2000 mg/mL. It also gave a Ki [2] of 68 nM.
